We go through two molecules from patent US20250241990A1, “THERAPEUTIC AGENT” (priority 2022, published 2025).

The test system of the experiment is E. coli CFT073. Description: Irf3−/− mice infected with E. coli CFT073 by intravesical instillation; genetic model of acute pyelonephritis and urosepsis. The format is in vivo. The note with it: for bacterial growth in urine: at day 21 and 42; for long term protection against infection and inflammation: daily i.p. treatment for 7 days, follow-up to day 42, FIG. 2; for urine neutrophil numbers: long-term follow-up (day 21 and 42). Here is the method:
Irf3^−/− mice were infected with E. coli CFT073 (50 μl of 2.109 cfu/ml) by intravesical instillation. Intraperitoneal treatment was administered daily, starting 6 hours after infection and for 7 days. Mice were treated with recombinant NIpD protein (105 μg in 100 μl) or IL-1RA (Anakinra, 1 mg/kg, 100 μl). Control mice received PBS. Urine sampling for bacterial and neutrophil counts were done on day 1, 3, 5 and 7 in one group of animals (those sacrificed on day 7), and on day 1, 3, 5, 7, 21 and 42 in others.
Animals were sacrificed under anesthesia; kidneys and bladders were asceptically removed and in the case of bladders, macroscopic pathology was documented by photography. Tissues were fixed with 4% paraformaldehyde or frozen for sectioning and RNA extraction. Viable counts in homogenized tissues (Stomacher 80, Seward Medical) were determined on TSA (37° C., overnight). Urine samples were collected prior to and at regular times after infection and quantitatively cultured. Neutrophils in uncentrifuged urine were counted, using a hemocytometer.

Take “IL-1RA: interleukin-1 receptor antagonist (IL-1 RA), anakinra”: the “bacterial growth in urine” value is “no bacterial growth in urine”; the “long term protection against infection and inflammation” value is recorded as “long term protection”; the urine neutrophil numbers entry was “low urine neutrophil numbers”.

B1: NIpD: recombinant NIpD protein; bacterial protein, e.g. from E. coli 83972; may comprise or consist of SEQ ID NO: 1 (protein, listed as Escherichia coli)
chain: MSAGSPKFTVRRIAALSLVSLWLAGCSDTSNPPAPVSSVNGNAPANTNSGMLITPPPKMGTTSTAQQPQIQPVQQPQIQATQQPQIQPMQPVAQQPVQMENGRIVYNRQYGNIPKGSYSGSTYTVKKGDTLFYIAWITGNDFRDLAQRNNIQAPYALNVGQTLQVGNASGTPITGGNAITQADAAEQGVVIKPAQNSTVAVASQPTITYSESSGEQSANKMLPNNKPTATTVTAPVTVPTASTTEPIVSSTSTSTPISTWRWPTEGKVIETFGASEGGNKGIDIAGSKGQAIIATADGRVVYAGNALRGYGNLIIIKHNDDYLSAYAHNDTMLVREQQEVKAGQKIATMGSTGTSSTRLHFEIRYKGKSVNPLRYLPQR
Turning to B1, the “bacterial growth in urine” value was “no bacterial growth in urine”; the “long term protection against infection and inflammation” value was “long term protection”; the urine neutrophil numbers entry is “low urine neutrophil numbers”.
